From PMC10762035, “Molecular basis of human trace amine-associated receptor 1 activation” (Nature Communications, 2024)
Residue numbers refer to the chain shown, from its start. Several values for one entry are separate records, joined by “and”; a condition that tells them apart may be missing. Identical values can stand only once. Like-named read-outs stand apart in the source and are kept apart here.

Experiments:
Assay type in all cases: cell-based
[1] = biological target: T1, hTA1 I290N (Homo sapiens, UniProt Q96RJ0, I290N); test: GloSensor cAMP accumulation assay, I290N mutant;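 also: cells transiently co-expressing hTA1 and the GloSensor cAMP biosensor, luminescence read 30 min after compound addition at room temperature, efficacy scaled to the maximal β-PEA response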
T1 construct: expressed in transfected cells; host or cells: HEK293T
T1 sequence (Q96RJ0 1-339 I290N): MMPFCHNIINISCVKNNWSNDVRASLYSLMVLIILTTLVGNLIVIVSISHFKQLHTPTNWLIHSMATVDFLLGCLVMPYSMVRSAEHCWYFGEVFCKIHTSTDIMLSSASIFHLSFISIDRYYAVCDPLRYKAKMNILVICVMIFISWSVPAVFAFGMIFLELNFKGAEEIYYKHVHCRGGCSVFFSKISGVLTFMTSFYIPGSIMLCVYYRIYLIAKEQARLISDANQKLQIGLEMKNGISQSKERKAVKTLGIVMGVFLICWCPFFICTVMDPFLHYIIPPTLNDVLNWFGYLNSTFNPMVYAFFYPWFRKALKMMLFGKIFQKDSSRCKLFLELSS

[2] = biological target: T2, hTA1 C13S (Homo sapiens, UniProt Q96RJ0, C13S); test: GloSensor cAMP accumulation assay, C13S mutant; details: for C13S - Normalized Luminescence Counts (N=2): log[Compound], single wells
T2 construct: expressed in transfected cells; host or cells: HEK293T
T2 sequence (Q96RJ0 1-339 C13S): T1 sequence (Q96RJ0 1-339 I290N) with C13S, N290I

[3] = biological target: T3, hTA1 W264F (Homo sapiens, UniProt Q96RJ0, W264F); test: GloSensor cAMP accumulation assay, W264F mutant;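 also: cells transiently transfected with receptor plus GloSensor, luminescence read 30 min after agonist addition at room temperature, concentration-response curves fitted by log(agonist) vs response regression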
T3 construct: expressed in transfected cells; host or cells: HEK293T
T3 sequence (Q96RJ0 1-339 W264F): T1 sequence (Q96RJ0 1-339 I290N) with W264F, N290I

[4] = biological target: T4, hTA1 T271N (Homo sapiens, UniProt Q96RJ0, T271N); test: GloSensor cAMP accumulation assay, T271N mutant
T4 construct: expressed in transfected cells; host or cells: HEK293T
T4 sequence (Q96RJ0 1-339 T271N): T1 sequence (Q96RJ0 1-339 I290N) with T271N, N290I

[5] = biological target: T5, hTA1 b2N (Homo sapiens, UniProt Q96RJ0); test: GloSensor cAMP accumulation assay, b2N construct
T5 construct: read by me as the first 25 residues of β2AR (N); expressed in transfected cells; host or cells: HEK293T

[6] = biological target: T6, hTA1 C178S (Homo sapiens, UniProt Q96RJ0, C178S); test: GloSensor cAMP accumulation assay, C178S mutant; details: for C178S - Normalized Luminescence Counts (N=2): log[Compound], single replicates
T6 construct: expressed in transfected cells; host or cells: HEK293T
T6 sequence (Q96RJ0 1-339 C178S): T1 sequence (Q96RJ0 1-339 I290N) with C178S, N290I

[7] = W246F mutant (so in the source) minus WT average

T5 sequence (Q96RJ0 with tags, fused parts or gaps): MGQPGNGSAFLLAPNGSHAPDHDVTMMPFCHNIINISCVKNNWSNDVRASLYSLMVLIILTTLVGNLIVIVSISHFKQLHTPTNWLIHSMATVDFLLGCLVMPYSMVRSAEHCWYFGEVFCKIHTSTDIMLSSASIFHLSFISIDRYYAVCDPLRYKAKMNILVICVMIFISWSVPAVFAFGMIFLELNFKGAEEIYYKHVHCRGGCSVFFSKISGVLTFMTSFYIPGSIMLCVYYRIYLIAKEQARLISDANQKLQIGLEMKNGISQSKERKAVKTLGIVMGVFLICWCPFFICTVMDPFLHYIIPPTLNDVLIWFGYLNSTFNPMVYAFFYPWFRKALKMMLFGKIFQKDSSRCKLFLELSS

`CCC(CC1COC(N)=N1)c1ccccc1` (stereo not shown) [Ro5256390] was tested, and the EC50 ([1]; EC50, I290N, n=2) was 6.21 nM, the “cAMP accumulation response, single replicate values (source data, Supplementary Figure 5)” value ([1]; hTA1 I290N (N=2), log[Compound], M = -5) was 109.556 and 109.922 and 109.294 and 105.343 and the “ΔpEC50 values (each mutant value - WT average), Mean” value (from here on “ΔpEC50 values … Mean”) ([1]; hTA1 I290N mutant minus WT average) was -0.14 and 0.00774. For the same compound, the “Emax values, Mean” value ([1]; hTA1 I290N mutant, β-PEA set to 100, each grid row a separate experiment, 3 replicates) was 96.7119, the EC50 ([1]; pEC50 values (Mean), hTA1 I290N mutant, Figure 3B source data, each grid row a separate experiment, 3 replicates) was 7.37 nM and 5.24 nM and the Emax ([1]; read-out: Emax values (Mean), hTA1 I290N mutant, β-PEA set to 100, each grid row a separate experiment, 3 replicates) was 101%. The Emax ([1]; read-out: Span ± SEM (Emax normalized to β-PEA), I290N, n=2) was 99 ± 2.27%, the “ΔpEC50 values (each mutant value - WT average)” value ([2]; C13S) was -0.1093 and -0.3651 and the Emax values ([2]; C13S, Mean of fit per experiment) was 104.119. For the same compound, the EC50 ([2]; EC50, C13S, n=2) was 9.21 nM, the “C13S - Normalized Luminescence Counts (N=2)” value ([2]; M = -5) was 108.406 and 95.388 and 120.776 and 112.887 and 109.603 and 114.083 and the “C13S - Normalized Luminescence Counts (N=2)” value ([2]; M = -5.522) was 112.25 and 104.067 and 102.43 and 107.496 and 95.9649 and 109.96. For the same compound, the “C13S - Normalized Luminescence Counts (N=2)” value ([2]; M = -6) was 90.5159 and 87.1282 and 84.9205 and 101.909 and 92.8231 and 104.73, the “C13S - Normalized Luminescence Counts (N=2)” value ([2]; M = -6.522) was 96.2254 and 77.4601 and 94.8551 and 102.052 and 85.8613 and 107.282 and the EC50 ([2]; pEC50 values, Mean, hTA1 C13S, mean of 3 replicates, one line per independent experiment) was 6.86 nM and 12.4 nM. For the same compound, the Emax ([2]; read-out: Emax values, C13S, Mean of fit per experiment) was 96.6%, the Emax ([2]; read-out: Span ± SEM (Emax normalized to β-PEA), C13S, n=2) was 100 ± 3.73% and the “Emax values, Mean” value [3] was 62.0152 and 91.1137. For the same compound, the EC50 ([3]; EC50, W264F, n=2) was 127 nM, the “ΔEmax values (each mutant value - WT average)” value [3, 7] was -41.2891 and the “ΔpEC50 values (each mutant value - WT average)” value [3, 7] was -1.382 and -1.371. The EC50 ([3]; W246F mutant (so in the source), each line an independent experiment, 3 replicates, read-out: pEC50 values (Mean) (converted)) was 129 nM and 125 nM, the Emax ([3]; read-out: Span ± SEM (Emax normalized to β-PEA), W264F, n=2) was 76.6 ± 14.5% and the EC50 ([4]; EC50, T271N, n=2) was 12.6 nM. For the same compound, the “ΔpEC50 values … Mean” value ([4]; T271N mutant minus WT average, Figure 5B) was -0.2524 and -0.4929, the “Emax values, Mean” value ([4]; T271N mutant, Figure 5B, β-PEA = 100, each row one independent experiment (3 replicates)) was 121.264 and 99.7038 and the EC50 ([4]; pEC50 values, Mean, T271N mutant, Figure 5B, each row one independent experiment (3 replicates)) was 9.54 nM and 16.6 nM. The Emax ([4]; read-out: Span ± SEM (Emax normalized to β-PEA), T271N, n=2) was 110%, the EC50 [5] was 1.56 nM and the Emax ([5]; read-out: Span ± SEM (Emax normalized to β-PEA)) was 97.7 ± 9.34%. For the same compound, the “ΔpEC50 values … Mean” value ([6]; C178S, each row one experiment (N=2), 3 replicates) was -0.5545 and -0.2923, the Emax ([6]; C178S, relative to β-PEA) was 120% and the “Emax values, Mean” value ([6]; C178S, β-PEA = 100, each row one experiment (N=2), 3 replicates) was 104.356 and 134.792. The EC50 ([6]; EC50, C178S, n=2) was 14.1 nM, the “C178S - Normalized Luminescence Counts (N=2)” value ([6]; M = -5) was 102.446 and 115.063 and 100.063 and 98.247 and 134.327 and 139.921 and the “C178S - Normalized Luminescence Counts (N=2)” value ([6]; M = -5.522) was 112.587 and 101.839 and 98.2408 and 148.866 and 141.178 and 145.097. For the same compound, the “C178S - Normalized Luminescence Counts (N=2)” value ([6]; M = -6) was 99.8763 and 105.203 and 90.1566 and 163.316 and 171.125 and 157.632, the “C178S - Normalized Luminescence Counts (N=2)” value ([6]; M = -6.522) was 110.577 and 98.2408 and 97.8202 and 140.041 and 136.93 and 126.219 and the “C178S - Normalized Luminescence Counts (N=2)” value ([6]; M = -7) was 89.6425 and 86.2313 and 90.5771 and 109.526 and 118.68 and 112.368. The “C178S - Normalized Luminescence Counts (N=2)” value ([6]; M = -7.522) was 61.5581 and 68.0535 and 67.1189 and 100.042 and 97.9478 and 96.7511, the “C178S - Normalized Luminescence Counts (N=2)” value ([6]; M = -8) was 35.9971 and 29.5951 and 33.2867 and 60.9705 and 68.8087 and 90.3489 and the “C178S - Normalized Luminescence Counts (N=2)” value ([6]; M = -8.522) was 17.2585 and 16.3239 and 17.6791 and 41.704 and 41.2253 and 41.0458. For the same compound, the “C178S - Normalized Luminescence Counts (N=2)” value ([6]; M = -9) was 9.361 and 5.296 and 6.978 and 20.7921 and 25.9976 and 27.6132, the “C178S - Normalized Luminescence Counts (N=2)” value ([6]; M = -9.522) was 1.184 and 0.9499 and 2.959 and 8.825 and 6.193 and 11.0392 and the “C178S - Normalized Luminescence Counts (N=2)” value ([6]; M = -10) was 1.651 and 2.539 and 1.885 and 5.9234 and 4.278 and 6.671. For the same compound, the “C178S - Normalized Luminescence Counts (N=2)” value ([6]; M = -10.522) was 0.4359 and -0.07812 and -0.265 and 1.256 and 0.02978 and 1.197, the “C178S - Normalized Luminescence Counts (N=2)” value ([6]; M = -11) was 0.9499 and 0.763 and 0.2957 and 5.146 and 2.064 and 5.0259 and the “C178S - Normalized Luminescence Counts (N=2)” value ([6]; M = -11.522) was -0.4987 and 1.2303 and -0.03139 and 3.65 and 2.333 and 2.932. For the same compound, the “C178S - Normalized Luminescence Counts (N=2)” value ([6]; M = -12) was 0.2023 and 1.184 and 0.4359 and 4.098 and 3.021 and 6.312, the “C178S - Normalized Luminescence Counts (N=2)” value ([6]; M = -12.522) was 0.2023 and -0.1249 and -0.03139 and 3.321 and 2.124 and 7.958 and the EC50 ([6]; pEC50 values, Mean, C178S, each row one experiment (N=2), 3 replicates) was 19.1 nM and 10.5 nM. For the same compound, the Emax ([6]; read-out: Span ± SEM (Emax normalized to β-PEA), C178S, n=2) was 120%.
